Counter-ions that a name gives are not always drawn.
First: COc1cc2nc(-c3ccc(N(C)C)c4ccccc34)[nH]c(=O)c2cc1OC [Example 44]
Second: COc1cc(OC)c2c(=O)[nH]c(-c3ccc(O)c(OC)c3)nc2c1 [Example 31, 2-(4-hydroxy-3-methoxyphenyl)-5,7-dimethoxyquinazolin-4(3H)-one]
The melting point of the first is lower: 235.5 to 236.5 °C for the first, 294 to 296 °C for the second.

`Cc1cc(-c2nc3cc(Cl)cc(Cl)c3c(=O)[nH]2)cc(C)c1OCCO` [Example 80, 5,7-dichloro-2-(4-(2-hydroxyethoxy)-3,5-dimethylphenyl)quinazolin-4(3H)-one] and `Cc1cc(-c2nc3ccccc3c(=O)[nH]2)cc(C)c1OCCO` [Example 35, 2-(4-(2-hydroxyethoxy)-3,5-dimethylphenyl)quinazolin-4(3H)-one] cannot be ordered by melting point: 260.8 to 262.6 °C for the first, 260 to 261 °C for the second.

First: Oc1ccc(-c2cc3ccccc3cn2)cc1 [Example 2, 4-lsoquinolin-3-yl-phenol]
Second: Oc1ccc(-c2cc3ncccc3cn2)cc1 [Example 5, 4-(1,6-naphthyridin-7-yl)phenol]
The melting point of the first is lower: 218 to 219 °C for the first, 219 to 221 °C for the second.

First: COc1cc(OC)c2c(=O)[nH]c(-c3ccc(OCC(=O)O)c(OC)c3)nc2c1 [Example 103, 2-(4-(5,7-dimethoxy-4-oxo-3,4-dihydroquinazolin-2-yl)2-methoxyphenoxy)acetic acid]
Second: COc1cc(OC)c2c(=O)[nH]c(-c3ccc(OC)c(CN4CCOCC4)c3)nc2c1 [Example 69, 5,7-dimethoxy-2-(4-methoxy-3-(morpholinomethyl)phenyl)quinazolin-4(3H)-one]
The melting point of the first is lower: 275 to 277 °C for the first, 282.7 to 284.5 °C for the second.

Compared with `COc1cc2cc(-c3cc(C)c(O)c(C)c3)n(C)c(=O)c2c(OC)c1C` [Example 17, 3-(4-hydroxy-3,5-dimethylphenyl)-6,8-dimethoxy-2,7-dimethylisoquinolin-1(2H)-one], `COc1cc(OC)c2c(=O)[nH]c(-c3cc(C)c(O)c(C)c3)nc2n1` [Example 68, 2-(4-hydroxy-3,5-dimethylphenyl)-5,7-dimethoxypyrido[2,3-d]pyrimidin-4(3H)-one] is higher in melting point: 246 to 248 °C for the first, 297 to 299 °C for the second.

First: Cc1cc(-c2nc3ccc(CN4CCOCC4)cc3c(=O)[nH]2)cc(C)c1O (as salt: hydrochloride) [Example 62, 2-(4-hydroxy-3,5-dimethylphenyl)-6-(morpholinomethyl)quinazolin-4(3H)-one]
Second: COc1cc(OC)c2c(=O)[nH]c(-c3ccc(CN4CCN(C)CC4)cc3)nc2c1 (as salt: hydrochloride) [Example 59, 5,7-dimethoxy-2-(4((4-methylpiperazin-1-yl)methyl)phenyl)quinazolin-4(3H)-one]
The melting point of the first is higher: 284 to 286 °C for the first, 275 to 277 °C for the second.

First: COc1cc(OC)c2c(=O)[nH]c(-c3cc(C)c(OCCN(C)C)c(C)c3)cc2c1 (as salt: hydrochloride) [Example 10, 3-(4-(2-(dimethylamino)ethoxy)-3,5-dimethylphenyl)-6,8-dimethoxyisoquinolin-1(2H)-one]
Second: COc1cc(OC)c2c(=O)[nH]c(-c3cc(C)c(OCCO)c(C)c3)nc2n1 [Example 70, 2-(4-(2-hydroxyethoxy)-3,5-dimethylphenyl)-5,7-dimethoxypyrido[2,3-d]pyrimidin-4(3H)-one]
The melting point of the first is higher: 261 to 263 °C for the first, 255 to 256 °C for the second.

For `COc1cc(OC)c2c(=O)[nH]c(-c3ccc(OCCO)c(Cl)c3)nc2c1` [Example 56, 2-(3-chloro-4-(2-hydroxyethoxy)phenyl)-5,7-dimethoxyquinazolin-4(3H)-one], the melting point was 287 to 288 °C (dec.).
Molecule `COc1cc(O)nc2cc(-c3cc(C)c(O)c(C)c3)[nH]c(=O)c12` (as salt: hydrochloride) [Example 12, 2-hydroxy-7-(4-hydroxy-3,5-dimethylphenyl)-4-methoxy-1,6-naphthyridin-5(6H)-one] has a melting point greater than 330 °C.
In the case of `CCN1CCN(Cc2ccc(-c3nc4cc(OC)cc(OC)c4c(=O)[nH]3)cc2)CC1` (as salt: hydrochloride) [Example 67, 2-(4((4-ethylpiperazin-1-yl)methyl)phenyl)-5,7-dimethoxyquinazolin-4(3H)-one], the melting point is reported as 278 to 280 °C (dec.).

From patent publication US10532054B2, “Compounds for the prevention and treatment of cardiovascular diseases” (Resverlogix Corp., priority 2007, dated 2020)
